Patent publication US8029814B2, “Male produced pheromone in Tetropium fuscum (F.) and Tetropium cinnamopterum (kirby) (coleoptera: cerambycidae)” (Her Majesty the Queen in Right of Canada as represented by …, priority 2007, dated 2011)
“Also recorded” adds a separate entry of the source.

How the values were obtained:
[1] = tested on: T. cinnamopterum; test: Field trapping, Colossus traps, McNabs Island, Halifax, 2006; format: in vivo, Tetropium cinnamopterum
Text: (§1) FIG. 3. Mean number (+SE) of male and female T. fuscum (a) and T. cinnamopterum (b) captured in COLOSSUS TRAPS™ (insect traps) baited with synthetic pheromone candidate (P), host volatile lures (HV), P plus host volatiles (P+HV), or un-baited traps, over the entire 8-week trapping period. […] Data for T. fuscum males and females and T. cinnamopterum females were transformed by log (y+1); data for the catch of T. cinnamopterum males were transformed by square root.
(§2) The synthetic pheromone, alone and in combination with host volatile attractants, was tested in a field experiment on McNabs Island, Halifax, Nova Scotia, from 5 Jul. to 29 Aug. 2006, using COLOSSUS TRAPS™ (insect traps) (PheroTech Inc. Delta, British Columbia) (Sweeney et al. 2006)^4. Unbaited traps and traps baited with host volatiles alone served as controls, for a total of four treatments. Treatments were replicated 15 times in a randomized complete block design with 30 m between traps and blocks. Each trap was suspended from a rope tied between two conifers separated by at least 2 m, with the collecting bucket 10-20 cm above the ground. […] Pheromone was dispensed at ca. initially 800 μg/d dropping to 50 μg/d over a 4 week period (determined by weight loss at 23° C.) from a polymerase chain reaction (PCR) sample tube (Axygen Scientific Inc., CA) (0.2-mL thick) with a 1 mm diam. hole drilled in the cap. […]

[2] = tested on: T. fuscum antennae; test: Electroantennogram (EAG) antennal stimulation; set-up: species or system Tetropium fuscum; details: EAG puffs ca. 30 ng source concentration
Experimental: (§3) Extracts (cal male equivalent in hexane) and synthetics (30 ng fuscumol) were tested for antennal stimulation of T. fuscum and T. cinnamopterum males and females using an electroantennogram (EAG) system and EAG/GC-EAD signal recording (IDAC-232) and analysis software v.2.6 (SYNTECH, The Netherlands). Antennae from males and females were excised close to the head and used intact with SPECTRA-60™ gel (electrode gel) (Parker, USA) for electrical contact.
as §3, with “(ca.1” for “(cal”, “Spectra©-60” for “SPECTRA-60™”, “gel” for “gel (electrode gel)”

[3] = tested on: T. castaneum; test: Trapping with low, medium or high release of racemic fuscumol or fuscumate plus SB and E lures (FIG. 13); format: in vivo, Tetropium castaneum; details: added to spruce volatile (SB) and ethanol (E) lures
Experimental: FIG. 13 Mean catch of T. castaneum in traps baited with low (1 mg/d), medium (4 mg/d) or high (32 mg/d) of racemic fuscumol plus spruce volatile (SB) and ethanol (E) lures.

[4] = tested on: T. castaneum; test: Field trapping of fuscumol enantiomers, APT Intercept traps, Bialowieza, Poland, 2007; format: in vivo, Tetropium castaneum; details: in the presence of host volatiles and ethanol
Text: (§4) FIG. 4. Mean catch of a. Tetropium fuscum and b. T. castaneum in APT INTERCEPT TRAPS™ (insect traps) baited with synthetic fuscumol (pure S—, pure R—, or racemic) alone and combined with host volatile lures (SB=spruce blend, a blend of monoterpenes in an ultra high release rate (UHR) lure; E=ethanol in an UHR lure) in Bialowieza, Poland in 2007.
Trapping experiments were run in 2007 in Halifax, NS, and Bialowieża, Poland to test the response of Tetropium species to fuscumol, a sex pheromone emitted by male Tetropium fuscum (F.) and male T. cinnamopterum. […] Male T. fuscum emit primarily S-fuscumol so we hypothesized that a synthetic lure of pure S-fuscumol would be more attractive than pure R-fuscumol, and possibly more attractive than racemic fuscumol, especially if R-fuscumol was the major pheromone component of a sympatric sibling species such as T. castaneum. The ultimate objective was to determine if we could improve the efficacy of the lure for use in applications for survey and control of T. fuscum. Conducting the experiment in Poland allowed us to test the response of a different population of T. fuscum from that in Halifax and also to determine the attraction of the pheromone lures to another potentially invasive species, T. castaneum. […]

[5] = tested on: T. fuscum; test: Field trapping, Colossus traps, McNabs Island, Halifax, 2006; format: in vivo, Tetropium fuscum; details: female and male T. fuscum; compared with host volatiles alone or unbaited traps; 8-week trapping
Text: as §1, §2

[6] = tested on: T. cinnamopterum antennae; test: Electroantennogram (EAG) antennal stimulation; set-up: species or system Tetropium cinnamopterum; details: EAG puffs ca. 30 ng source concentration
Experimental: as §3
as §3, with “(ca.1” for “(cal”, “Spectra©-60” for “SPECTRA-60™”, “gel” for “gel (electrode gel)”

[7] = tested on: T. fuscum; test: Field trapping of fuscumol enantiomers, APT Intercept traps, Bialowieza, Poland, 2007; format: in vivo, Tetropium fuscum
Text: as §4
Trapping experiments were run in 2007 in Halifax, NS, and Bialowieża, Poland to test the response of Tetropium species to fuscumol, a sex pheromone emitted by male Tetropium fuscum (F.) and male T. cinnamopterum. […] Male T. fuscum emit primarily S-fuscumol so we hypothesized that a synthetic lure of pure S-fuscumol would be more attractive than pure R-fuscumol, and possibly more attractive than racemic fuscumol, especially if R-fuscumol was the major pheromone component of a sympatric sibling species such as T. castaneum. The ultimate objective was to determine if we could improve the efficacy of the lure for use in applications for survey and control of T. fuscum. Conducting the experiment in Poland allowed us to test the response of a different population of T. fuscum from that in Halifax and also to determine the attraction of the pheromone lures to another potentially invasive species, T. castaneum.
There were eight different lure treatments: S-fuscumol; R-fuscumol; racemic fuscumol; S-fuscumol+UHR (ultra high release rate) spruce blend lure+UHR ethanol lure; R-fuscumol+UHR spruce blend lure+UHR ethanol lure; racemic fuscumol+UHR spruce blend lure+UHR ethanol lure; UHR spruce blend lure+UHR ethanol lure; and unbaited controls.
On McNabs Island near Halifax, NS, COLOSSUS TRAPS™ (insect traps) were used with 15 replicates per treatment and in Bialowieża, APT (Advanced Pheromone Technologies) INTERCEPT TRAPS™ (insect traps) were used with 9 replicates per treatment. The treatments were laid out in randomized complete block designs with 30 m spacing between traps. Traps were out from 15 May to 27 Jun. 2007 on McNabs Island and from 30 Apr. to 25 Jun. 2007 in Bialowieża. […]

[8] = tested on: T. fuscum; test: Trapping with low, medium or high release of racemic fuscumol or fuscumate plus SB and E lures (FIG. 14); format: in vivo, Tetropium fuscum; details: added to spruce volatile (SB) and ethanol (E) lures
Experimental: FIG. 14 Mean catch of T. fuscum in traps baited with low (1 mg/d), medium (4 mg/d) or high (32 mg/d) of racemic fuscumol plus spruce volatile (SB) and ethanol (E) lures.

SMILES: CC(C)=CCC/C(C)=C/CCC(C)O (racemic) [racemic fuscumol, (E)-6,10-dimethyl-5,9-undecadien-2-ol]
- trap catch compared with unbaited traps ([1]; T. cinnamopterum, fuscumol alone): did not differ from that in unbaited traps
- response of male T. cinnamopterum ([1]; males): Lack of response
- antennal response in females relative to males [2]: 2-3 times
- antennal response (EAG) ([2]; females, n=5): 6.05 ± 0.3 mV
- catch compared to SB+E [3]: significantly increased catch
- attraction of T. castaneum [4]: attracted
- trap catch compared among lure treatments [5]: did not differ from that in unbaited traps
- antennal response in females relative to males [6]: 2-3 times
- antennal response (EAG) ([6]; females, n=5): 1.7 ± 0.2 mV

SMILES: CC(C)=CCC/C(C)=C/CC[C@@H](C)O [R-fuscumol]
- attraction of T. fuscum to S-fuscumol in the presence of R-fuscumol ([7]; racemic versus S-fuscumol): not reduced

SMILES: CC(C)=CCC/C(C)=C/CC[C@H](C)O [S-fuscumol, (2S, 5E)-6,10-dimethyl-5,9-undecadien-2-ol]
- attractiveness compared with R-fuscumol or an unbaited trap ([7]; without host volatile lures): significantly more attractive
- mean catch compared with racemic fuscumol ([7]; without host volatile lures): did not differ significantly
- attraction of T. castaneum [4]: attracted

SMILES: CC(=O)OC/C=C(\C)CCC=C(C)C [fuscumate, geranyl acetate]
- catch compared to SB+E [8]: did not boost catch; also recorded: no effect on attraction
- catch compared to SB+E [3]: did not boost catch; also recorded: no effect on attraction
